The values that follow come from publication PMC12518639, “Apomorphine is a novel necroptosis inhibitor targeting mixed lineage kinase domain-like protein oligomerization” (Cell Death Discovery, 2025).

Structures are written as SMILES.

One series deals with ulcerative colitis. Further details: method as in PMID 34389633. Conditions: phase II trial; cited from earlier work.
A further series has as its system mouse MLKL. Further details: method as in PMID 28827318. Conditions: cited from earlier work.
Another series has as its target T1, Wt-hMLKL (Homo sapiens, UniProt Q8NB16).
T1 construct: purchased Abcam ab241453
T1 sequence (Q8NB16 1-471): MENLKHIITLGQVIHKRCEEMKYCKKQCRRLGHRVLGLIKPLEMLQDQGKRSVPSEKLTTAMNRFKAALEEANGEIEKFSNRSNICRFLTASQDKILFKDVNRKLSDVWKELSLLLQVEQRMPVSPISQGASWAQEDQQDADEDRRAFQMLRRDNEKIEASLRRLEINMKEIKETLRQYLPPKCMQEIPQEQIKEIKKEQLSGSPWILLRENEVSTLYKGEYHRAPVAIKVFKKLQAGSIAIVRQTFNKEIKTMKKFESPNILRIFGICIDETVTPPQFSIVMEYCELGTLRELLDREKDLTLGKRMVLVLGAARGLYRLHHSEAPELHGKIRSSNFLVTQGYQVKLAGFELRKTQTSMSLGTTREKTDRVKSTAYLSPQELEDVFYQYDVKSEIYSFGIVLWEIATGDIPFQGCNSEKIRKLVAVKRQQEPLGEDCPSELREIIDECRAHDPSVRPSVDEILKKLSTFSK
The series can be described thus: SPR competition assay of NSA with Ox-APO. In kind it is binding. Particulars: 200 μM NSA, 750 μM Ox-APO. The protocol:
Fig. S4 Competition assay of NSA with Ox-APO by SPR. Wt-hMLKL was immobilized on a CM5 chip and 750 μM Ox-APO was overflowed in the presence or absence of 200 μM NSA.

As to `CN1C(=O)[C@@H](NC(=O)c2nnc(Cc3ccccc3)[nH]2)COc2ccccc21` [GSK2982772], in the series on ulcerative colitis, the therapeutic benefit result is “failed to show significant therapeutic benefit” and the tolerability in humans entry is “well tolerated”.
`COc1nccnc1NS(=O)(=O)c1ccc(NC(=O)/C=C/c2ccc([N+](=O)[O-])s2)cc1` [NSA, Necrosulfonamide]: in the series on mouse MLKL, the “activity against mouse MLKL” value is “ineffective”. In addition, at Wt-hMLKL, the “competition for binding to hMLKL” value is on record as “competed with Ox-APO”.
